What all share (assay): TAG hydrolase assay, chimeric ATGL variants
Holding throughout (type): biochemical, human and mouse

In test [1] the target is T1, Variant c3 containing aa 1–23 of human ATGL (Homo sapiens, UniProt Q96AD5, F69I/F97C/G146T/H109R/I93T/K68N/N133S/S106C/S111N/S158T/S96G/V101T/V60A).
T1 construct: host or cells: Expi293 cells, cell lysate
Particulars: variant c3, NG-497 (10 μM) or Atglistatin (10 μM). Here is the method:
(§1) Figure 5 Analysis of chimeric proteins comprising human and mouse ATGL. (a) Schematic view of the minimal active domain of wild-type and chimeric ATGL variants (c1–c9). Nonidentical aa are indicated in blue and red for mouse and human ATGL, respectively. ATGL variants were expressed in Expi293 cells and TAG hydrolase activity was determined in cell lysates in the presence or absence of NG-497 (10 μM) and Atglistatin (10 μM), respectively. Inhibition of ATGL variants by respective inhibitors (tick mark) and lack of inhibition (cross) is indicated at the right edge. The expression of all ATGL variants was confirmed by Western blotting analysis (Figure S6). (b) Dose-dependent inhibition of human ATGL (aa 1–288) and c1 (human aa 1–158 and mouse aa 159–288) by NG-497. (c) Dose-dependent inhibition of mouse ATGL (aa 1–288) and c2 (mouse aa 1–158 and human aa 159–288) by Ai. IC50 values are shown in the insets. Data are presented as relative inhibition of respective DMSO controls and are indicated as mean ± SD. (d) 3D homology model of the minimal active domain of mouse ATGL (M1–L254) depicted as a cartoon. Residues 1–178 are in blue, and residues 179–254 are in gray. S47 and D166 comprising the active site are represented as green sticks. T101, C106, R109, N111, and S133 are colored in orange, A60, N68, I69, T93, C97, and T146 are colored in magenta. TEXT PRINTED IN THE PICTURE: (b) NG-497: IC50 [μM] (human): 1.3±0.1; IC50 [μM] (c1): 1.3±0.1 | (b) Ai: IC50 [μM] (human): n.det.; IC50 [μM] (c1): n.det. | (c) NG-497: IC50 [μM] (mouse): n.det.; IC50 [μM] (c2): n.det. | (c) Ai: IC50 [μM] (mouse): 2.5±0.3; IC50 [μM] (c2): 2.4±0.1 […]
(§2) We next generated variants by further stepwise humanization of c2. Variant c3 containing aa 1–23 of human ATGL was inhibited by Ai but not NG-497 (Figure 5a). […] Finally, variants of mouse ATGL containing aa 1–146 (c7) and 60–146 (c8) of human ATGL were inhibited by NG-497 but not Ai (Figure 5a).
(§3) Experimental details, materials, and methods
(§4) Expression of recombinant ATGL constructs and preparation of cell lysates. Expi293 cells were cultivated in Expi293 Expression Medium (GIBCO, Thermo Fisher Scientific, Waltham, USA) at standard conditions (37°C, 5% CO2, 95% humidified atmosphere, 125 rpm). DNA constructs containing ATGL from different species and chimeric ATGL variants in pcDNA3.1(+)myc-His C Vector were obtained from BioCat GmbH (Heidelberg, Germany). Cells were transfected with ExpiFectamine293 Transfection Kit (GIBCO) in Opti-Mem reduced serum medium (GIBCO) according to the manufacturer’s instructions. After 48 h, cells were harvested by centrifugation and washed three times with PBS. Cells were disrupted in buffer A (0.25 M sucrose, 1 mM EDTA, 1 mM dithiothreitol, 20µg/ml leupeptin, 2 µg/ml antipain, 1 µg/ml pepstatin, pH 7.0) by sonication (Virsonic 475, Virtis, Gardiner, USA). Nuclei and debris were removed by centrifugation at 1,000 g and 4°C for 10 min. Protein concentrations were determined using Bio-Rad protein assay (Bio-Rad 785, Bio-Rad Laboratories, Munich, Germany) using BSA as standard.
(§5) Expression and purification of mouse CGI-58. CGI-58 was expressed and purified as described 1. In brief, the coding sequence of mouse Cgi-58 was cloned into pHis-Sumo and co-transformed with the plasmid pTf16 expressing the chaperone Tig into E. coli BL21(DE3). Cells were cultured overnight at 37°C and 180 rpm in the presence of 40 µg/ml kanamycin and 34 µg/ml chloramphenicol. Thereafter, cells were transferred into fresh LB medium, grown until OD600 of 0.6, and expression was induced by the addition of 0.5 mM IPTG. After overnight incubation at 30°C, cells were harvested at 4,500 x g and 4°C for 20 min, washed in 1x PBS, and resuspended in lysis buffer (20 mM Tris/HCl pH 7.8, 300 mM NaCl, 30 mM imidazole, 0.1% IGEPAL CA-630, 3.5 mM β-mercaptoethanol, 20 µg/ml leupeptin, 2 µg/ml antipain and 1 µg/ml pepstatin). Cells were incubated with 1 […]

Test [2] relates to c8 (mouse ATGL containing aa 60–146 of human ATGL). Particulars: variant c8, NG-497 (10 μM) or Atglistatin (10 μM). How it is done:
as §1, §2, §3, §4, §5

Test [3] deals with T2, c7 (mouse ATGL containing aa 1–146 of human ATGL) (Mus musculus, UniProt Q8BJ56, A60V/C106S/C97F/G96S/H22Y/I23V/I69F/K7T/N111S/N68K/R109H/S133N/T101V/T146G/T6K/T93I).
T2 construct: host or cells: Expi293 cells, cell lysate
The note with it: variant c7, NG-497 (10 μM) or Atglistatin (10 μM). Here is the method:
as §1, §2, §3, §4, §5

The structures appear in SMILES notation.

T2 sequence (Q8BJ56 1-288 with the stated changes limits assumed): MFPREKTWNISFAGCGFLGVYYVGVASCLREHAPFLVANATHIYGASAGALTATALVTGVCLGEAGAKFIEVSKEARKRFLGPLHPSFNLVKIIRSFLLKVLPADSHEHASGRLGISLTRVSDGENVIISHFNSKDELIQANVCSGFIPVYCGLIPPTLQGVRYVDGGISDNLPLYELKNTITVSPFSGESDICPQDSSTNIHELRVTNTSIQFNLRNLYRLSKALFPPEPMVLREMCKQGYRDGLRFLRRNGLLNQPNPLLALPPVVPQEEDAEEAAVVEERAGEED
T1 sequence (Q96AD5 1-288 V60A/K68N/F69I/I93T/S96G/F97C/V101T/S106C/H109R/S111N/N133S/G146T/S158T): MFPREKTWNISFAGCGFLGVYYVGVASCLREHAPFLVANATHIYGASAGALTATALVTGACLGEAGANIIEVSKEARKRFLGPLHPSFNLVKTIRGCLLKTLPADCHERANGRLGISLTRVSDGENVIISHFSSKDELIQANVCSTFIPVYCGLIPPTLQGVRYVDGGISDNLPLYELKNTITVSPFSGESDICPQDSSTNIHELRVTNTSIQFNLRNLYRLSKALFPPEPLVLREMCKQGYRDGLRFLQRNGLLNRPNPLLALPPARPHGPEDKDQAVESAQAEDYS

Take `CN(C)C(=O)Nc1cccc(-c2ccc(N(C)C)cc2)c1` [Atglistatin, reference compound]: the “inhibition of TAG hydrolase activity” value in test [1] is given as “inhibited”.

In the case of `CCOc1ccc(-c2cc(OC)cc(C(=O)OC(C)C)n2)cc1` [NG-497], the “inhibition of TAG hydrolase activity” value in test [2] and in test [3] was “inhibited” each time.

The record behind these values is publication PMC9011347, “Small-Molecule Inhibitors Targeting Lipolysis in Human Adipocytes” (Journal of the American Chemical Society, 2022).
